From patent US5342604A (The Dow Chemical Company, priority 1992, dated 1994)
Read-outs that look alike come from different tables or passages of the source. Each block holds one compound with its values, some of them ahead of it.

How the values were obtained:
[1] = Inertness of antibody-complex conjugates challenged with excess DTPA; format: physicochemical; conditions: 1000 fold molar excess of DTPA, pH 7.4, one hour
Procedure: The purified antibody-complexes were added to HEPES buffer (N-2-hydroxyethylpiperazine-N'-2-ethanesulfonic acid) at pH 7.4 and treated with an appropriate amount of 0.1M DTPA solution (pH 7.4) to ensure a 1000 fold molar excess of DTPA over complex attached to antibody. After one hour an aliquot was removed and the antibody-complex conjugates were separated from low molecular weight substances using gel-filtration.

[2] = Lability of yttrium complexes on addition of excess metal; format: physicochemical; conditions: Y
Procedure: (§1) A disposable 10 ml plastic (Biorad) column was filled with 1 to 2 ml of water-swelled Sephadex™ C-25 cation exchange resin. The water was pressure eluted to the top of the resin. Fifteen μl of the complex (or more if counts were low) were added to the top of the resin. This was followed by 2 ml of 4:1 (V:V) isotonic saline:conc. ammonium hydroxide solution as an eluent which was allowed to drip into a counting tube. This was also pressure eluted to the top of the resin. An additional 2 ml of the eluent were added and the column pressure eluted to remove all liquid. The dried resin was then placed in a third counting tube and the three tubes counted on a NaI well counter using a Canberra multichannel analyzer linked to a computer. The percent complex was determined by dividing the number of counts in the two elutions by the total counts in the elutions plus the column, all times 100. By this method, uncomplexed yttrium was retained on the column.
The 1:1 complex of yttrium with 1-(p-aminobenzyl)diethylenetriaminepentaacetic acid (ABDTPA), a well known bifunctional chelant used in the literature, and with the ligand of Example 2 (Now Ex. XVI) and Example 12 (now Ex. XVII) were prepared using the techniques described earlier. Several 100 microliter aliquots were then withdrawn into separate centrifuge tubes. Excess metal was added such that the total volume change is minimized and the time noted. One-half hour after metal addition, the percent complex was determined by the Sephadex™ C-25 method and this was compared to the original amount of complex. The percent complex versus added metal gives an indication as to the lability of the ligand-metal complex. Results are given below and are compared to the EDTA-yttrium complex.

[3] = cited from earlier work
[4] = In vivo screening of bifunctional chelates: biodistribution, percent injected dose in liver; conditions: rat, i.v. tail vein, 2 hours
[5] = radionuclide; cited from earlier work
[6] = Percent complex determination, yttrium complexes (Sephadex C-25 cation exchange); format: physicochemical; conditions: Y
Procedure: The yttrium and/or samarium complexes of several of the compounds were prepared and percent complexation determined as follows:
Complexes were made by preparing a 0.0003M yttrium solution in water. (YCl3 ·6H2 O, 303.26 g/mole; Y(OAc)3, 12.1% H2 0). Radioactive YCl3 (Oakridge National Laboratories) was added to give the desired number of counts. Ten μl of ligand solution (at 0.03M) were added to 990 μl of the Y solution, giving a ligand-to-metal ratio of 1:1. (Ten times the amount of ligand solution was used for a 10:1 ligand to metal ratio.) The pH was then adjusted to 7.4 using microliter quantities of hydrochloric acid or sodium hydroxide. The solution was then tested for the amount of complexed yttrium using the cation exchange method given below.
as §1

[7] = Percent complex determination, samarium complexes (Sephadex C-25 cation exchange); format: physicochemical; conditions: Sm
Procedure: as §1, with “100.” for “100. By this method, uncomplexed yttrium was retained on the column.”
Samarium complexes were formed as described previously for yttrium complexes except that 0.0003M samarium was prepared by dissolution of Sm2 03 (348.7 g mole) in 0.1M hydrochloric acid. […] Percent complex determination was made in the same manner as for the yttrium complex.

Biodistribution in rats = conditions: 2 hours
[8] = system: osteosarcoma in the right proximal humerus; assay: Treatment of a dog with osteosarcoma; format: in vivo; conditions: Sm-153, 300 times molar excess ligand, I.V. 0.95 mCi/Kg, one week after injection
Procedure: A dog was presented with an osteosarcoma in the right proximal humerus and walked with significant lameness. A complex was prepared using the ligand of Example 10 with a Sm-153 solution. The concentration of Sm was 3×10^-4 M and the ligand was used with a 300 times molar excess. The specific activity of the Sm-153 was 30 mCi/ml. The dog was given an I.V. injection of this complex containing 0.95 mCi of Sm-153 per Kg body weight of the dog.

[9] = Biodistribution in rabbit; format: in vivo; conditions: Y-90, 10 times molar excess ligand
Procedure: Muscle was calculated using 46% of body weight.
A rabbit was injected in the same manner as the rats with a formulation having Y-90 with Y at 3×10^-4 M and the ligand of Example 10 at 10 times molar excess.

[10] = Metal/Ligand Molar Ratio 10, one-half hour after metal addition
[11] = Metal/Ligand Molar Ratio 100, one-half hour after metal addition
[12] = Metal/Ligand Molar Ratio 250, one-half hour after metal addition
[13] = Metal/Ligand Molar Ratio 500, one-half hour after metal addition
[14] = Ho-166, 300 times molar excess ligand
[15] = Sm-153, 10 times molar excess ligand
[16] = Sm-153, 300 times molar excess ligand

- % Complex ([2]; Metal/Ligand Molar Ratio 1): 97%
- % Complex [2, 10]: 95%
- % Complex [2, 11]: 92%
- % Complex [2, 12]: 87%
- % Complex [2, 13]: 70%
Structure (SMILES): Nc1ccc(CC(CN(CCN(CC(=O)O)CC(=O)O)CC(=O)O)N(CC(=O)O)CC(=O)O)cc1 (centres unmarked) [ABDTPA, 1-(p-aminobenzyl)diethylenetriaminepentaacetic acid]
- yttrium lost from antibody-complex conjugate [1]: over 98%

Structure (SMILES): O=C(O)CN(CC(=O)O)CC(=O)O [NTA, nitrilotri-acetic acid, reference compound]
- concentrations of radioactivity in organs ([3]; mouse, in vivo): high concentrations of radioactivity were observed in the liver, spleen, kidney, lung and bone
- % Injected Dose in Liver ([4]; Sm, ligand/metal about 300:1): 8.6%

Structure (SMILES): [89Sr] [Strontium-89]
- half-life [5]: 50.4 days

- % Complex ([6]; ligand/metal 10:1): 99%
- % Complex ([6]; ligand/metal ratio about 1:1): 98%
- % Complex ([2]; Metal/Ligand Molar Ratio 1): 95%
- % Complex [2, 10]: 93%
- % Complex [2, 11]: 90%
- % Complex [2, 12]: 90%
- % Complex [2, 13]: 79%
- % Complex ([7]; ligand/metal 10:1): 98%
- % Complex ([7]; ligand/metal ratio about 1:1): 98%
Structure (SMILES): Nc1cc(CN(CCN(CC(=O)O)CC(=O)O)CC(=O)O)c(O)c(CN(CCN(CC(=O)O)CC(=O)O)CC(=O)O)c1 [Example 12]
- yttrium lost from antibody-complex conjugate [1]: approximately 39%

Structure (SMILES): CC(=O)Nc1cc(C(C(=O)O)N(CC(=O)O)CC(=O)O)c(O)c(C(C(=O)O)N(CC(=O)O)CC(=O)O)c1 (centres unmarked) [Example 10, 2,6-BIS{[BIS(CARBOXYMETHYL)AMINO](CARBOXY)METHYL}-4-(ACETAMIDO) PHENOL]
- % Complex ([6]; ligand/metal 10:1): 98%
- biodistribution, blood (% dose) (Biodistribution in rats; [14]): 0.09%
- biodistribution, bone (% dose) (Biodistribution in rats; [14]): 52.9%
- biodistribution, liver (% dose) (Biodistribution in rats; [14]): 0.26%
- biodistribution, muscle (% dose) (Biodistribution in rats; [14]): 1.1%
- biodistribution, spleen (% dose) (Biodistribution in rats; [14]): 0.007%
- biodistribution, blood (% dose) (Biodistribution in rats; [15]): 0.18%
- biodistribution, bone (% dose) (Biodistribution in rats; [15]): 48.5%
- biodistribution, liver (% dose) (Biodistribution in rats; [15]): 1.3%
- biodistribution, muscle (% dose) (Biodistribution in rats; [15]): 0.73%
- biodistribution, spleen (% dose) (Biodistribution in rats; [15]): 0.01%
- biodistribution, blood (% dose) (Biodistribution in rats; [16]): 0.05%
- biodistribution, bone (% dose) (Biodistribution in rats; [16]): 52.7%
- biodistribution, liver (% dose) (Biodistribution in rats; [16]): 0.12%
- biodistribution, muscle (% dose) (Biodistribution in rats; [16]): 0.23%
- biodistribution, spleen (% dose) (Biodistribution in rats; [16]): 0.005%
- % Injected Dose in Liver ([4]; Ho, (300)): 0.26%
- % Injected Dose in Liver ([4]; Sm, (300)): 0.12%
- % Injected Dose in Liver ([4]; Sm, ligand/metal 10:1): 1.3%
- % Injected Dose in Liver ([4]; Y, ligand/metal 10:1): 0.39%
- dog's gait [8]: noticeably improved
- biodistribution, blood (% dose) [9]: 0.68%
- biodistribution, bone (% dose) [9]: 59%
- biodistribution, liver (% dose) [9]: 1.1%
- biodistribution, muscle (% dose) [9]: 1.5%
- biodistribution, spleen (% dose) [9]: 0.19%

Structure (SMILES): O=C(O)CN(CCN(CC(=O)O)CC(=O)O)CC(=O)O [EDTA, ethylenediaminetetraacetic acid]
- concentrations of radioactivity in organs ([3]; Sc-46, Y-91, La-140, Sm-153, chelant to metal 5:1): high concentrations of radioactivity were observed in the liver, spleen, kidney, lung and bone
- % Complex ([2]; Metal/Ligand Molar Ratio 1): 98%
- % Complex [2, 10]: 86%
- % Complex [2, 11]: 78%
- % Complex [2, 12]: 48%
- % Complex [2, 13]: 16%
- % Injected Dose in Liver ([4]; Sm, ligand/metal 5:1): 8.4%
- % Injected Dose in Liver ([4]; Sm, ligand/metal about 300:1): 4.4%
